In patent publication US6476067B1, “N-formyl hydroxylamine derivatives as antibacterial agents” (British Biotech, priority 1998, dated 2002):
≈ marks a conversion by molar mass, not a printed value.

Experiments:
E. coli strain DH5α = experiment: Minimal inhibitory concentration (MIC), broth microdilution; type: cell-based; conditions: Escherichia coli, 2×YT broth, 37° C., 18 hours, lowest concentration that inhibited visible growth
Procedure: (§1) Minimal inhibitory concentrations (MIC) of inhibitors against E. colistrain DH5α (Genotype; F-φ80d/acZΔM15Δ(lacZYA-argF)U169 deoR recA1 endA1 hsdR17(rk^−,mk^+)phoA supE44λ^−thi-1 gyrA96 re/A1) obtained from GibcoBRL Life Technologies, or Staphylococcus capitis (American Type Culture Collection number 35661) were determined as follows. Stock solutions of each test compound were prepared by dissolution of the compound in dimethylsulfoxide at 10 mM. For the determination of the minimal inhibitory concentration, two fold serial dilutions were prepared in 2×YT broth (typtone-16 g/1, yeast extract 10 g/1, sodium chloride 5 g/1 obtained from BIO 101 Inc, 1070 Joshua Way, Vista, Calif. 92083, USA) to yield 0.05 ml compound-containing medium per well. Inocula were prepared from cultures grown overnight in 2×YT broth at 37° C. Cell densities were adjusted to absorbance at 660 nm (A660)=0.1; the optical density-standardized preparations were diluted 1:1000 in 2×YT broth; and each well inoculated with 0.05 ml of the diluted bacteria. Microtiter plates were incubated at 37° C. for 18 hours in a humidified incubator. The MIC (μM) was recorded as the lowest drug concentration that inhibited visible growth.

[1] = system: Staphylococcus capitis (American Type Culture Collection number 35661); experiment: as above; type: cell-based; conditions: ATCC35661, S. capitis ATCC 35661, 2×YT broth, 37° C., 18 hours, lowest concentration that inhibited visible growth
Procedure: as §1

For `CCCCC(CN(O)C=O)C(=O)N[C@H](C(=O)OC1CCCC1)C(C)C` (stereo partly drawn) [Example 6, 2S-{2R-[(Formyl-hydroxy-amino)methyl]-hexanoylamino}-3-methyl Butyric Acid Cyclopentyl Ester], the MIC (E. coli strain DH5α) was 100 µM (≈ 35.6 µg/mL) and the MIC [1] was 50 µM (≈ 17.8 µg/mL).
Work on `O=CN(O)C[C@@H](CC1CCCC1)C(=O)N[C@@H](Cc1ccccc1)C(=O)OC1CCCC1` [Example 16, 2S-[2R-Cyclopentylmethyl-3-(formyl-hydroxy-amino)-propionylamino]-3-phenyl-propionic Acid Cyclopentyl Ester] yielded a melting point of 76.8 to 78.5 °C.
Work on `CC(C)C[C@@H](C(=O)N[C@@H](Cc1ccccc1)C(=O)OC1CCCC1)C(C)N(O)C=O` (stereo partly drawn) [Example 2, 2S-{2R-[1-(R,S)-(Formyl-hydroxy-amino)-ethyl]-4-methyl-pentanoylamino}-3-phenylpropionic Acid Cyclopentyl Ester] yielded an MIC (E. coli strain DH5α) of over 200 µM and an MIC [1] of 200 to 300 µM (≈ 83.7 to 126 µg/mL).
`CCCC[C@H](CN(O)C=O)C(=O)N[C@H](C(=O)OC(C)(C)C)C(C)(C)C` [Example 11, 2S-{2R-[(Formyl-hydroxy-amino)-methyl]-hexanoylamino}-3,3-dimethyl-butyric Acid Tert-butyl Ester] gave a melting point of 76.1 to 78.2 °C.
With `CCCC[C@H](CN(O)C=O)C(=O)N[C@@H](Cc1ccccc1)C(=O)OC1CCCC1` [Example 4, 2S-{2R-[(Formyl-hydroxy-amino)-methyl]-hexanoylamino}-3-phenyl-propionic Acid Cyclopentyl Ester] the MIC (E. coli strain DH5α) was 200 to 300 µM (≈ 80.9 to 121 µg/mL) and the MIC [1] was 25 µM (≈ 10.1 µg/mL).
For `CCCC[C@H](CN(O)C=O)C(=O)N[C@H](C(=O)OC1CCCC1)C(C)(C)C` [Example 3, 2S{-2R-[(Formyl-hydroxy-amino)-methyl]-hexanoylamino}-3,3-dimethyl Butyric Acid Cyclopentyl Ester], the MIC (E. coli strain DH5α) was 50 µM (≈ 18.5 µg/mL) and the MIC [1] was 12.5 µM (≈ 4.63 µg/mL).
Work on `CCCC[C@H](CN(O)C=O)C(=O)N[C@H](C(=O)OC)C(C)(C)C` [Example 5, 2S-{2R-[(Formyl-hydroxy-amino)methyl]-hexanoylamino}-3,3-dimethyl Butyric Acid Methyl Ester] yielded a melting point of 63.5 to 64.5 °C, an MIC (E. coli strain DH5α) of 50 µM (≈ 15.8 µg/mL) and an MIC [1] of 200 µM (≈ 63.3 µg/mL).
`O=CN(O)CC(Cc1ccccc1)C(=O)N[C@@H](Cc1ccccc1)C(=O)OC1CCCC1` (stereo partly drawn) [Example 1, 2S-[2-(R,S)-Benzyl-3-(formyl-hydroxy-amino)-propionylamino]-3-phenyl-propionic acid cyclopentyl ester] showed an MIC (E. coli strain DH5α) of 500 µM (≈ 219 µg/mL) and an MIC [1] of 12.5 µM (≈ 5.48 µg/mL).
